Test results as given in patent publication US20070088043A1, “Novel HDAC inhibitors” (ORCHID RESEARCH LABORATORIES LIMITED., priority 2005, published 2007).

How the values were obtained:
[1] = test system: NCIH 460 cells; assay: Anti-cancer screen (MTT), NCIH460; type: cell-based; conditions: Homo sapiens, NCI-H460, NCIH460 cells, 48 hours, MTT; for GI50: concentration to decrease % growth by 50%; for IC100: concentration to decrease % growth by 100%, read-out: NCIH460 TGI; for LC50: concentration to decrease % growth by 150%
Method in brief: (§1)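 HCT116, NCIH460 and U251 cells (5000/well, DMEM + 10% FBS) seeded 24 h, then treated 48 h in triplicate at 0.01, 0.1, 1, 10, 100 μM; time-zero plate kept. MTT 3 h, formazan in DMSO read at 570 nm; GI50, TGI, LC50 derived.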

[2] = test system: NCIH460, HCT116, MDAMB231/U251; assay: Anti-cancer screen, mean GI50 over the cell lines; type: cell-based; conditions: in µM
Method in brief: as §1

[3] = test system: HDAC (Mouse Liver Extract); assay: Histone Deacetylase (HDAC) Inhibition Assay using Boc-Lys (Ac)-AMC Substrate; type: biochemical; conditions: mouse liver enzyme, NA = No Activity; for HDAC Inhibition 1 μM / HDAC Inhibition 10 μM: in % (unit assumed)
Method in brief: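 Mouse liver extract was the HDAC source. It was preincubated with inhibitor for 5 min at 30° C, then incubated with Boc-Lys(Ac)-AMC substrate for 30 min at 30° C. Trypsin stop solution was added for a 20–30 min development step, and released AMC was read by fluorescence (ex 360/365, em 440/460 nm) with blank subtraction.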

[4] = test system: MDAMB231/U251; assay: Anti-cancer screen (MTT), MDAMB231/U251; type: cell-based; conditions: MDAMB231/U251 cells, 48 hours; for GI50: concentration to decrease % growth by 50%; for IC100: concentration to decrease % growth by 100%, read-out: MDAMB231/U251 TGI; for LC50: concentration to decrease % growth by 150%
Method in brief: as §1

[5] = test system: HCT 116 cells; assay: Anti-cancer screen (MTT), HCT116; type: cell-based; conditions: Homo sapiens, HCT-116, HCT116 cells, 48 hours, MTT; for GI50: concentration to decrease % growth by 50%; for IC100: concentration to decrease % growth by 100%, read-out: HCT116 TGI; for LC50: concentration to decrease % growth by 150%
Method in brief: as §1

Structure (SMILES) | GI50 [1] | IC100 [1] | LC50 [1] | Mean GI50 [2] | HDAC Inhibition 1 μM [3] | HDAC Inhibition 10 μM [3] | GI50 [4] | IC100 [4] | LC50 [4] | GI50 [5] | IC100 [5] | LC50 [5] | IC50 [3]
O=C(CCCCCCC(=O)N1CCN(CC(=O)Nc2ccccc2)CC1)NO [Example 31, 8-{4-[2-(Phenyl-2-ylamino)-2-oxoethyl]piperazin-1-yl}-N-hydroxy-8-oxo octanamide] | 60 µM | > 100 µM | > 100 µM | 40.20 | 45.20 | 84.96 | 0.6 µM | 94 µM | > 100 µM | 60 µM | > 100 µM | > 100 µM | 
COC(=O)[C@H](CO)NC(=O)CCCCCCC(=O)N1CCN(CC(=O)Nc2nc3ccc(C)cc3s2)CC1 [Example 30] | 42.5 µM | 80.5 µM | > 100 µM | 28.50 |  | 4.65 | 35 µM | 56 µM | 82 µM | 8 µM | 51 µM | 79 µM | 
O=C(CN1CCN(C(=O)CCCCCNO)CC1)Nc1nc2ccccc2s1 [Example 26] | 9.5 µM | 92 µM | > 100 µM | 15 |  | 4.5 | 27 µM | 85 µM | > 100 µM | 8.6 µM | > 100 µM | > 100 µM | 
COc1cc(CNC(=O)CN2CCN(C(=O)CCCCSC(C)=O)CC2)cc(OC)c1 [Example 20] | > 100 µM | > 100 µM | > 100 µM | >100 | 26.4 | 55.4 | > 100 µM | > 100 µM | > 100 µM | > 100 µM | > 100 µM | > 100 µM | 
CC(=O)SCCCCCC(=O)N1CCN(CC(=O)Nc2nc3ccccc3s2)CC1 [Example 6, 2-[4-(6-Thioacetylhexanoyl)piperazin-1-yl]-N-(1,3-benzothiazol-2-yl)acetamide] | 0.8 µM | 53 µM | > 100 µM | 2.00 | 63.40 | 83.30 | 0.01 µM | 0.4 µM | > 100 µM | 4.5 µM | 42 µM | > 100 µM | 0.062 µM
CC(=O)SCCCCC(=O)N1CCN(CC(=O)Nc2ccccc2)CC1 [Example 16, 2-[4-(5-Thioacetylpentanoyl)piperazin-1-yl]-N-(phenyl-2-yl)acetamide] | 30 µM | 52 µM | > 100 µM | 29.67 | 29.26 | 68.52 | 1 µM | > 100 µM | > 100 µM | 58 µM | > 100 µM | > 100 µM | 
CC(=O)SCCCCCC(=O)N1CCN(CC(=O)Nc2nc3ccc(C)cc3s2)CC1 [Example 12, 2-[4-(6-Thioacetylhexanoyl)piperazin-1-yl]-N-(6-methyl-1,3-benzothiazol-2-yl)acetamide] | 25 µM | 75 µM | > 100 µM | 17 | 57.31 | 85.59 | 19 µM | 65 µM | > 100 µM | 7 µM | > 100 µM | ≥ 100 µM | 
Cc1ccc2nc(NC(=O)CN3CCN(C(=O)CCCCCS)CC3)sc2c1 [Example 25, N-6-methyl-1,3-benzothiazol-2-yl-2-[4-(6-mercaptohexanoyl)piperazin-1-yl]acetamide] | 9 µM | > 100 µM | > 100 µM | 4.2 |  | 3.6 | 0.07 µM | 0.8 µM | > 100 µM | 3.5 µM | > 100 µM | > 100 µM | 
CC(=O)SCCCCC(=O)N1CCN(CC(=O)Nc2nccs2)CC1 [Example 7, 2-[4-(5-Thioacetylpentanoyl)piperazin-1-yl]-N-(1,3-thiozole-2-yl)acetamide] | 50 µM | 88 µM | > 100 µM | 67.50 | 27.76 | 45.96 | > 100 µM | > 100 µM | > 100 µM | 85 µM | > 100 µM | > 100 µM | 
CC(=O)SCCCCC(=O)N1CCN(CC(=O)Nc2cccc(F)c2)CC1 [Example 23, 2-[4-(5-Thioacetylpentanoyl)piperazin-1-yl]-N-(6-fluorophenyl-2-yl)acetamide] | > 100 µM | > 100 µM | > 100 µM | >100 | 47.2 | 81.7 | 38 µM | 78 µM | > 100 µM | 63 µM | > 100 µM | > 100 µM | 4.8 µM
